What was measured:
[1] = biological target: WT human STING isoform (THP-1-Dual KI-hSTING-R232 cells) (Homo sapiens (Human), UniProt Q86WV6, H232R); experiment: THP-1-Dual KI-hSTING-R232 reporter cell line assay; type: cell-based; settings: 24 h incubation, QUANTI-Luc luminescence
Method: (§1) THP-1 STING Lucia ISG cells (InvivoGen #thpI-isg) were cultured in RPMI-1640 containing 2 mM L-glutamine, 25 mM HEPES, 100 μg/mL Normocin (InvivoGen) and 10% heat-inactivated FBS. Cells were seeded at a density of 7×10^5 cells/mL, maintained at 37° C./5% CO2, and passaged every 3-4 days. Selection pressure was maintained by the addition of 100 μg/mL Zeocin every second passage.
(§2) Assay conditions: cells were harvested and resuspended at a concentration of 5×10^5 cells/mL in fresh growth media. Of this cell preparation 20 μL per well was dispensed into 384 well cell culture plates (Greiner, #781098X) and incubated at 37° C./5% CO2 for 2 hours. Concentration Response Curves (commonly 11 doses) were prepared by 2.5 fold serial dilution starting from 10 mM compound stock solution in DMSO. Compound dilutions were transferred into the cell culture plates using a pintool (0.1 μL transfer), control wells were matched for DMSO. Positive control wells received ML RR—S2 CDA (Med Chem Express HY12885B) in 5 μL of media to a final concentration of 40 μM. All other wells received additional 5 μL of media only to equalise volume. The plates were incubated for 24 h at 37° C./5% CO2.
(§3) For the detection step, QUANTI-Luc (InvivoGen #rep-qlc1) was prepared according to manufacturer's instruction and 10 μL were added per well to the culture plates. Plates were shaken for ten seconds on an orbital shaker and left in the dark at room temperature for two minutes, before luminescence was read on a Perkin Elmer Envision plate reader.
(§4) Data analysis: Luminescence raw data was normalised % activity relative to the signal of the positive control wells and negative control wells which were not treated with compound. The following formula was used to calculate normalised % activity from raw signals: % activity=(sample−negative)/(positive−negative)
(§5) The THP-1 STING Lucia ISG cell EC50 provides an assessment of activity at the human HAQ isoform of STING. For assessing compound activity against the WT human STING isoform, an equivalent method was conducted where the cells used were THP-1-Dual KI-hSTING-R232 (InvivoGen #thpd-r232).

[2] = biological target: human HAQ isoform of STING (THP-1 STING Lucia ISG cells) (Homo sapiens (Human), UniProt Q86WV6, G230A/H232R/R293Q/R71H); experiment: THP-1 STING Lucia ISG reporter cell line assay; type: cell-based; settings: 24 h incubation, QUANTI-Luc luminescence
Chain of human HAQ isoform of STING (THP-1 STING Lucia ISG cells) (Q86WV6 whole entry R71H/G230A/H232R/R293Q, canonical isoform): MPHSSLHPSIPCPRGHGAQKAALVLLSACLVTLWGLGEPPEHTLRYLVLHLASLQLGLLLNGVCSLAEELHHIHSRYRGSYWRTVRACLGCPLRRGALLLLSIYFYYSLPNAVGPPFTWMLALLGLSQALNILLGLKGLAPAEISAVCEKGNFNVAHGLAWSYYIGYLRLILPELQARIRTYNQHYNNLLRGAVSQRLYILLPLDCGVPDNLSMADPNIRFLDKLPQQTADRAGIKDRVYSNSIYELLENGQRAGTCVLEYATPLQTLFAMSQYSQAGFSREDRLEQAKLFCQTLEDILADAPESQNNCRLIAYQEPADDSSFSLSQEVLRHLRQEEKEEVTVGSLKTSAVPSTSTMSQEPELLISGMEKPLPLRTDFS
Method: as §1, §2, §3, §4, §5

Chain of WT human STING isoform (THP-1-Dual KI-hSTING-R232 cells) (Q86WV6 whole entry H232R, canonical isoform): as the sequence (Q86WV6 whole entry R71H/G230A/H232R/R293Q, canonical isoform) above, with H71R, A230G, Q293R counted along it

| SMILES | EC50 [1] | EC50 [2] |
| --- | --- | --- |
| NC(=O)c1ccc2c(c1)nc(-c1c(Br)cccc1C(=O)O)n2CCn1c(-c2c(Br)cccc2C(=O)O)nc2cc(C(N)=O)ccc21 (single isomer, unassigned) [Example 29.1, 2,2′-(Ethane-1,2-diylbis(5-carbamoyl-1H-benzo[d]imidazole-1,2-diyl))bis(3-bromobenzoic acid)] | 9850 nM | 18400 nM |
| NC(=O)c1ccc2c(c1)nc(-c1ccccc1C(=O)O)n2CCn1c(-c2ccccc2C(=O)O)nc2cc(C(N)=O)ccc21 [Example 2, 2,2′-(Ethane-1,2-diylbis(5-carbamoyl-1H-benzo[d]imidazole-1,2-diyl))dibenzoic acid] | > 40000 nM | > 40000 nM |
| COc1c(C(N)=O)ccc2c1nc(-c1c(F)cc(F)cc1C(=O)O)n2CCn1c(-c2c(F)cc(F)cc2C(=O)O)nc2c(OC)c(C(N)=O)ccc21 [Example 16, 2,2′-(Ethane-1,2-diylbis(5-carbamoyl-4-methoxy-1H-benzo[d]imidazole-1,2-diyl))bis(3,5-difluorobenzoic acid)] | 840 nM | 738 nM |
| COc1c(C(N)=O)ccc2c1nc(-c1ccc(Cl)cc1C(=O)O)n2CCCn1c(-c2ccc(Cl)cc2C(=O)O)nc2c(OC)c(C(N)=O)ccc21 [Example 35, 6,6′-(Propane-1,3-diylbis(5-carbamoyl-4-methoxy-1H-benzo[d]imidazole-1,2-diyl))bis(3-chlorobenzoic acid)] | > 40000 nM | > 40000 nM |
| COc1c(C(N)=O)cc(F)c2c1nc(-c1c(F)cc(F)cc1C(=O)O)n2CCn1c(-c2c(F)cc(F)cc2C(=O)O)nc2c(OC)c(C(N)=O)cc(F)c21 [Example 18, 2,2′-(Ethane-1,2-diylbis(5-carbamoyl-7-fluoro-4-methoxy-1H-benzo[d]imidazole-1,2-diyl))bis(3,5-difluorobenzoic acid)] | 566 nM | 326 nM |
| COc1c(C(N)=O)ccc2c1nc(-c1ccc(Cl)cc1C(=O)O)n2CCn1c(-c2ccc(Cl)cc2C(=O)O)nc2c(OC)c(C(N)=O)ccc21 [Example 1, 6,6′-(Ethane-1,2-diylbis(5-carbamoyl-4-methoxy-1H-benzo[d]imidazole-1,2-diyl))bis(3-chlorobenzoic acid)] | 895 nM | 1070 nM |
| COc1ccc(-c2nc3c(OC)c(C(N)=O)ccc3n2CCn2c(-c3ccc(OC)cc3C(=O)O)nc3c(OC)c(C(N)=O)ccc32)c(C(=O)O)c1 [Example 41, 6,6′-(Ethane-1,2-diylbis(5-carbamoyl-4-methoxy-1H-benzo[d]imidazole-1,2-diyl))bis(3-methoxybenzoic acid)] | > 40000 nM | > 40000 nM |
| COc1c(C(N)=O)ccc2c1nc(-c1ccc(Cl)cc1C(=O)O)n2C/C=C/Cn1c(-c2ccc(Cl)cc2C(=O)O)nc2c(OC)c(C(N)=O)ccc21 [Example 34, (E)-6,6′-(But-2-ene-1,4-diylbis(5-carbamoyl-4-methoxy-1H-benzo[d]imidazole-1,2-diyl))bis(3-chlorobenzoic acid)] | > 40000 nM | > 40000 nM |
| COc1c(C(N)=O)ccc2c1nc(-c1ncc(Cl)cc1C(=O)O)n2CCn1c(-c2ncc(Cl)cc2C(=O)O)nc2c(OC)c(C(N)=O)ccc21 [Example 31, 2,2′-(Ethane-1,2-diylbis(5-carbamoyl-4-methoxy-1H-benzo[d]imidazole-1,2-diyl))bis(5-chloronicotinic acid)] | > 40000 nM | > 40000 nM |

Further lines, results first:

| EC50 [1] | EC50 [2] | SMILES |
| --- | --- | --- |
| 360 nM | 290 nM | COc1c(C(N)=O)ccc2c1nc(-c1ccc(Cl)cc1-c1n[nH]c(=O)o1)n2CCn1c(-c2ccc(Cl)cc2-c2n[nH]c(=O)o2)nc2c(OC)c(C(N)=O)ccc21 [Example 17, 1,1′-(Ethane-1,2-diyl)bis(2-(4-chloro-2-(5-oxo-4,5-dihydro-1,3,4-oxadiazol-2-yl)phenyl)-4-methoxy-1H-benzo[d]imidazole-5-carboxamide)] |
| 2470 nM | 2500 nM | COc1c(C(N)=O)ccc2c1nc(-c1c(Cl)cccc1-c1nn[nH]n1)n2CCn1c(-c2c(Cl)cccc2-c2nn[nH]n2)nc2c(OC)c(C(N)=O)ccc21 (single isomer, unassigned) [Example 23, 1,1′-(Ethane-1,2-diyl)bis(2-(2-chloro-6-(2H-tetrazol-5-yl)phenyl)-4-methoxy-1H-benzo[d]imidazole-5-carboxamide)] |
| 191 nM | 136 nM | COc1c(C(N)=O)ccc2c1nc(-c1c(F)cccc1-c1n[nH]c(=O)o1)n2CCn1c(-c2c(F)cccc2-c2n[nH]c(=O)o2)nc2c(OC)c(C(N)=O)ccc21 [Example 49, 1,1′-(Ethane-1,2-diyl)bis(2-(2-fluoro-6-(5-oxo-4,5-dihydro-1,3,4-oxadiazol-2-yl)phenyl)-4-methoxy-1H-benzo[d]imidazole-5-carboxamide)] |
| 4190 nM | 2670 nM | COc1c(C(N)=O)ccc2c1nc(-c1ccc(Cl)cc1-c1cn[nH]n1)n2CCn1c(-c2ccc(Cl)cc2-c2cn[nH]n2)nc2c(OC)c(C(N)=O)ccc21 [Example 24, 1,1′-(Ethane-1,2-diyl)bis(2-(4-chloro-2-(2H-1,2,3-triazol-4-yl)phenyl)-4-methoxy-1H-benzo[d]imidazole-5-carboxamide)] |
| 715 nM | 777 nM | COc1c(C(N)=O)ccc2c1nc(-c1ccc(Cl)cc1-c1nn[nH]n1)n2CCn1c(-c2ccc(Cl)cc2-c2nn[nH]n2)nc2c(OC)c(C(N)=O)ccc21 [Example 9, 1,1′-(Ethane-1,2-diyl)bis(2-(4-chloro-2-(2H-tetrazol-5-yl)phenyl)-4-methoxy-1H-benzo[d]imidazole-5-carboxamide)] |
| 232 nM | 297 nM | COc1c(C(N)=O)ccc2c1nc(-c1c(I)cccc1C(=O)O)n2CCn1c(-c2c(I)cccc2C(=O)O)nc2c(OC)c(C(N)=O)ccc21 (single isomer, unassigned) [Example 19.1, 2,2′-(Ethane-1,2-diylbis(5-carbamoyl-4-methoxy-1H-benzo[d]imidazole-1,2-diyl))bis(3-iodobenzoic acid)] |
| 195 nM | 218 nM | COc1c(C(N)=O)ccc2c1nc(-c1c(F)cc(Cl)cc1-c1nn[nH]n1)n2CCn1c(-c2c(F)cc(Cl)cc2-c2nn[nH]n2)nc2c(OC)c(C(N)=O)ccc21 [Example 46, 1,1′-(Ethane-1,2-diyl)bis(2-(4-chloro-2-fluoro-6-(2H-tetrazol-5-yl)phenyl)-4-methoxy-1H-benzo[d]imidazole-5-carboxamide)] |
